Tests used:
[1] = target: T1, human recombinant HDAC1 (Homo sapiens, UniProt Q13547); experiment: In vitro HDAC enzyme activity inhibition assay (HDAC1); type: biochemical; conditions: Fluor de Lys-SIRT1 substrate 10 μM, 30° C., 60 minutes, fluorescence
T1 construct: purchased Enzo Life Sciences, Inc. BML-SE456
In short: (§1)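 Fluorimetric deacetylase kit: human recombinant HDAC1 or HDAC6 (0.3 μg) with 10 μM Fluor de Lys-SIRT1 substrate and 5-fold diluted compounds, 60 min at 30° C. Developer added for 30 min, fluorescence read at Ex 360/Em 460, IC50 calculated.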

[2] = target: T2, human recombinant HDAC6 (Homo sapiens, UniProt Q9UBN7); experiment: In vitro HDAC enzyme activity inhibition assay (HDAC6); type: biochemical; conditions: for HDAC6 selectivity (fold): HDAC6 over HDAC1; for IC50: same protocol as the HDAC1 test, human recombinant HDAC6 (Calbiochem)
T2 construct: purchased Calbiochem Inc. 382180
T2 sequence (Q9UBN7 1-1215): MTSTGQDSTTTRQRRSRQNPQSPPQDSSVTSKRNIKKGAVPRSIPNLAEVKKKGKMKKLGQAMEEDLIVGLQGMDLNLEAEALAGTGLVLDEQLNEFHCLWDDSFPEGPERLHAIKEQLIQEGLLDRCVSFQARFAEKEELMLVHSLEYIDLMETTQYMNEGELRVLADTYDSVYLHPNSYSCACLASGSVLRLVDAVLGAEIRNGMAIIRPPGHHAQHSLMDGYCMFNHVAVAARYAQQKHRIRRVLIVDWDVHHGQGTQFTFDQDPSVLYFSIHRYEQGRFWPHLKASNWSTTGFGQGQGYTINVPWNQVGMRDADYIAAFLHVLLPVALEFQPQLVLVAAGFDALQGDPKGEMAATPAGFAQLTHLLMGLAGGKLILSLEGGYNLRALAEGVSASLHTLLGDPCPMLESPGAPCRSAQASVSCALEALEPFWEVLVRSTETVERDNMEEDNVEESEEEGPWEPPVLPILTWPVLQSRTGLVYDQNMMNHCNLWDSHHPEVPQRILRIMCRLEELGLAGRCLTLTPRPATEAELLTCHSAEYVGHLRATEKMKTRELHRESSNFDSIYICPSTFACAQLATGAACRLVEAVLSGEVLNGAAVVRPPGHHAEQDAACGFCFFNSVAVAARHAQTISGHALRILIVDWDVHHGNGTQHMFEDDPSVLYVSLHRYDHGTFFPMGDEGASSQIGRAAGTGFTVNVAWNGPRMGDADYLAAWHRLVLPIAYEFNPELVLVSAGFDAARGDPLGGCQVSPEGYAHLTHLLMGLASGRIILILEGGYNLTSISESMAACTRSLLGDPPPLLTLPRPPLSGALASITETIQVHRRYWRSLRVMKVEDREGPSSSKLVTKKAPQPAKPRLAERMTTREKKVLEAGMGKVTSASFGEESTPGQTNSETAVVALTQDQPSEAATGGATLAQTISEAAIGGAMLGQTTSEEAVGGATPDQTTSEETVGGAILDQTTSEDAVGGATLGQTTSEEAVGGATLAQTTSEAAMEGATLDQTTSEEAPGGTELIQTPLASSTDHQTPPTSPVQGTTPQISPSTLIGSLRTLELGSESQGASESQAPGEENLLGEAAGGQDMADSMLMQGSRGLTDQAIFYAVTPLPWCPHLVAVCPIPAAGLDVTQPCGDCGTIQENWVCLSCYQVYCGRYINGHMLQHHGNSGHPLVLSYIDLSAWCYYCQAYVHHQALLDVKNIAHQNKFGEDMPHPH
In short: as §1

T1 sequence (Q13547 whole entry): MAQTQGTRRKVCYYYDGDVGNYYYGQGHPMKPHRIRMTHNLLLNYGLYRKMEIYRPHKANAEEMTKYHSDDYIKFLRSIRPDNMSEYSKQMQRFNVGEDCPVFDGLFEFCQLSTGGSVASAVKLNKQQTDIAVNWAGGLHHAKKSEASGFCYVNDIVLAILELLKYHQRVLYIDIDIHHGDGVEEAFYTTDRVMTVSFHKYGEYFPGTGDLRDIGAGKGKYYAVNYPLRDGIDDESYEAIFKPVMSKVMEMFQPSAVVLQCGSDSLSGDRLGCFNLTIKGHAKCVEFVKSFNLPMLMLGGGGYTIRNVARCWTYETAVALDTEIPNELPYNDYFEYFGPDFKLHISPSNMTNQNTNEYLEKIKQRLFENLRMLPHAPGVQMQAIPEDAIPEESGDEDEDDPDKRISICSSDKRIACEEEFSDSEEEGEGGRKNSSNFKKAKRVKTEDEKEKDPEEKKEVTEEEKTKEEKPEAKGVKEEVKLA

| IC50 [1] | HDAC6 selectivity (fold) [2] | IC50 [2] | SMILES |
| --- | --- | --- | --- |
| > 50 µM | 806 fold | 62 nM | O=S(=O)(N1CCN(C2CC3(COC3)C2)CC1)N(Cc1cn2ccc(-c3nnc(C(F)F)o3)cc2n1)c1cccc(F)c1 [Compound 4623, N-((7-(5-(difluoromethyl)-1,3,4-oxadiazol-2-yl)imidazo[1,2-a]pyridin-2-yl)methyl)-N-(3-fluorophenyl)-4-(2-oxaspiro[3.3]heptan-6-yl)piperazine-1-sulfonamide] |
| > 50 µM | 595 fold | 84 nM | CN1CC2(C1)CN(S(=O)(=O)N(Cc1cn3ccc(-c4nnc(C(F)F)o4)cc3n1)c1ccccc1)C2 [Compound 4624, N-((7-(5-(difluoromethyl)-1,3,4-oxadiazol-2-yl)imidazo[1,2-a]pyridin-2-yl)methyl)-6-methyl-N-phenyl-2,6-diazaspiro[3.3]heptan-2-sulfonamide] |
| > 50 µM | 16 fold | 3120 nM | CC(C)(C)OC(=O)N1CCC(S(=O)(=O)N(Cc2cn3ccc(-c4nnc(C(F)(F)F)o4)cc3n2)c2cccc(F)c2)CC1 [Compound 6893, tert-butyl 4-(N-(3-fluorophenyl)-N-((7-(5-(trifluoromethyl)-1,3,4-oxadiazol-2-yl)imidazo[1,2-a]pyridin-2-yl)methyl)sulfamoyl)piperidine-1-carboxylate] |
